Assay [1] has as its target T1, human M1 receptor (Homo sapiens, UniProt P11229).
T1 construct: made in house; host or cells: Sf9 insect cells (baculovirus)
T1 sequence (P11229 1-460): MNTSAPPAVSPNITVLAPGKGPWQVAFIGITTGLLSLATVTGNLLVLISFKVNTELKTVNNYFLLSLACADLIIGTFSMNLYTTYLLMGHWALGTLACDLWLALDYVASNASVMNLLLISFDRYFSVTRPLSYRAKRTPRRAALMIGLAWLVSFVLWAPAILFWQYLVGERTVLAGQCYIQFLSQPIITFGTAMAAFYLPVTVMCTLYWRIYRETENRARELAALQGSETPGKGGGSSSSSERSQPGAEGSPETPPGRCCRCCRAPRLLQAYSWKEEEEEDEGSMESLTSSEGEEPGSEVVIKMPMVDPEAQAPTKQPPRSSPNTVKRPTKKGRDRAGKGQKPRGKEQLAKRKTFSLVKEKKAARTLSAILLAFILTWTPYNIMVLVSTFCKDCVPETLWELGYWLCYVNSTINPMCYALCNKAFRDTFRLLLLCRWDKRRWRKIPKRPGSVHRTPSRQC
Description: Functional assay of M1 muscarinic receptors ([3H]inositol phosphate accumulation in Sf9 cells). The assay is classed as cell-based. The settings on record: 100 μM carbachol with increasing amounts of compound (FIG. 3). On the procedure:
A functional assay of M1 muscarinic receptors was performed. M1 receptor activity was determined by measuring activation of the Gαq effector, phospholipase C-β. Recombinant human M1 receptor was expressed (48 h) from a baculovirus in Sf9 insect cells. The inositol lipid pool of cells was radiolabeled by incubating the cells overnight in inositol-free Grace's medium containing 1 μCi of myo-[^3H]inositol. The medium was supplemented with 50 mM HEPES, pH 7.4, and 10 mM LiCl (final concentration) and placed in a 27° C. bath for 10 min prior to assay. The assay was initiated by addition of the appropriate ligand(s) and incubations continued for 20 min. The assay was terminated by aspirating the medium and adding 750 μL of ice-cold 50 mM formic acid. After 30 min at 4° C., the samples were neutralized with 250 μL of 150 mM NH4OH. [^3H]Inositol phosphates were isolated by ion exchange chromatography on Dowex AG 1-X8 columns and quantitated by liquid scintillation counting. […] The data shown in FIG. 3 are the results of an experiment performed in triplicate.

Assay [2] deals with T1, human M1 receptor. As to the kind of experiment: biochemical. The assay is classed as binding.
A further assay deals with T2, human M2 receptor (Homo sapiens, UniProt P08172).
T2 construct: made in house; host or cells: Sf9 insect cells (baculovirus)
T2 sequence (P08172 1-466): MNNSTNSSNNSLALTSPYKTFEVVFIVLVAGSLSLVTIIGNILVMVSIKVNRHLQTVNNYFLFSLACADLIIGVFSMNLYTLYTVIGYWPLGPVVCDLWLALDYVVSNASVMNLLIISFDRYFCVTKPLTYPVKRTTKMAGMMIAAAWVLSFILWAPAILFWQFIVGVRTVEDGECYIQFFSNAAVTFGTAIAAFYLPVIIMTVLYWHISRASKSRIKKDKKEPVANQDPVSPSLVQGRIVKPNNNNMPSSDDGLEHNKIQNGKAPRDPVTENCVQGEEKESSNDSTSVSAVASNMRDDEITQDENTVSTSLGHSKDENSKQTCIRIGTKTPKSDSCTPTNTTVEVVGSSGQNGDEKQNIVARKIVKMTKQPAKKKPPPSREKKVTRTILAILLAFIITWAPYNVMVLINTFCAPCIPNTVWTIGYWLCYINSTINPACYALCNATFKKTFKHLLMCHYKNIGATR
Description: Muscarinic M2 competition binding assay ([3H]QNB, Sf9 membranes).

Structures can show the parent of a compound that is named as a salt. Where two headings read alike, the source gives them in different places.

In general, Ki refers to the equilibrium dissociation constant of an inhibitor or competing ligand from its target. Turning to `CCOC(=O)C1=C(O)[C@H]2CC[C@H](COCc3ccccc3)N(C1)C2` (relative stereo) [Compound 5, exo-8-Benzyloxymethyl-3-ethoxycarbonyl-4-hydroxy-1-azabicyclo[3.3.1]non-3-ene], at human M1 receptor [1], the “functional activity at muscarinic receptor” value is reported as “muscarinic receptor antagonist”. In addition, the Ki on human M1 receptor [2] (read-out: hM1 receptor Ki) was found to be 0.203 ± 0.083 µM; on human M2 receptor (read-out: hM2 receptor Ki) it was 0.0843 ± 0.0081 µM. The “Ki fold greater than atropine at the human M2 receptor” value on human M2 receptor (relative to atropine) amounted to 14 fold.
For the compound `CCOC(=O)C1=C(O)[C@H]2CC[C@@H](COCc3ccccc3)N(C1)C2` (relative stereo) [Compound 6, endo-8-Benzyloxymethyl-3-ethoxycarbonyl-4-hydroxy-1-azabicyclo[3.3.1]non-3-ene], the Ki on human M1 receptor [2] (read-out: hM1 receptor Ki) turned out to be 10.3 ± 2.38 µM; at human M2 receptor (read-out: hM2 receptor Ki), 7.35 ± 1.09 µM.
As for `CCOC(=O)C1=C(O)C2CCCN(C1)C2` (stereo not drawn) [Compound 4, 3-Ethoxycarbonyl-4-hydroxy-1-azabicyclo[3.3.1]non-3-ene], the figures for the Ki at human M1 receptor [2] (hM1 receptor Ki) and at human M2 receptor (hM2 receptor Ki) were 1.01 ± 0.068 µM and 2.85 ± 0.179 µM, respectively.
With `CCOC(=O)C1=C(O)C2CCC(CN(C)C)N(C1)C2` (stereo not drawn) [Compound 7, exo-8-Dimethylaminomethyl-3-ethoxycarbonyl-4-hydroxy-1-azabicyclo[3.3.1]non-3-ene], the Ki was 16.8 ± 15.2 µM on human M1 receptor [2] (read-out: hM1 receptor Ki) and 23.9 ± 13.7 µM on human M2 receptor (read-out: hM2 receptor Ki).
On to `CCOC(=O)C1=C(O)C2CCC(CN(C)C)N(C1)C2` (stereo not drawn) [Compound 8, endo-8-Dimethylaminomethyl-3-ethoxycarbonyl-4-hydroxy-1-azabicyclo[3.3.1]non-3-ene], for which the values for the Ki on human M1 receptor [2] (read-out: hM1 receptor Ki) and on human M2 receptor (read-out: hM2 receptor Ki) were 12.4 ± 3.74 µM and 47.6 ± 14.8 µM, respectively.
In the case of `O=C1CCN2CCCC1C2` (stereo not drawn) [Compound 9, 1-Azabicyclo[3.3.1]nonan-4-one], the Ki on human M1 receptor [2] (hM1 receptor Ki) and on human M2 receptor (hM2 receptor Ki) was above 100 µM in each case.
In the case of `CN(C)CC1CCC2CN1CCC2=O` (stereo not drawn) [Compound 12, exo-8-Dimethylaminomethyl-1-azabicyclo[3.3.1]nonan-4-one-HCl], the Ki at human M1 receptor [2] (hM1 receptor Ki) and at human M2 receptor (hM2 receptor Ki) was above 100 µM in each case.
With `CN(C)CC1CCC2CN1CCC2=O` (stereo not drawn) [Compound 13, endo-8-Dimethylaminomethyl-1-azabicyclo[3.3.1]nonan-4-one-HCl], the Ki at human M1 receptor [2] (read-out: hM1 receptor Ki) and at human M2 receptor (read-out: hM2 receptor Ki) was above 100 µM in each case.

For the origin of these results see patent US6875774B2, “Aza-bridged bicyclic amine derivatives for use as novel cholinergic receptor ligands” (The University of North Carolina, priority 2002, dated 2005).
